{"source": "patent US8916583B2", "about": "“Therapeutic compositions for intranasal administration of zolpidem” (Renascence Therapeutics Limited, priority 2012, dated 2014)", "key": {"[1]": {"assay": "Pharmacokinetic study in beagle dogs", "settings": "for CL/F / Rel F(5 mg oral) / Tmax: beagle dogs; for Rel F(5 mg oral): relative to 5 mg oral; for AUC(0-inf) / AUC(0-t) / Cmax / MRT / half-life / Tmax: both, beagle, dog, plasma", "protocol": "Eight beagle dogs (4 male and 4 female) participated in the study. […] Water was given ad libitum throughout the study. Food was provided 4 hours post-dose. Blood samples were collected at pre-dose (0 min) and at 3, 6, 9, 12, 15, 20, 30, 45 minutes; and at 1, 1.5, 2, 3, 4, 6, 8, 24 hours post-dose. After plasma-separation process, the samples were analyzed by a validated LC-MS/MS method."}, "[2]": {"test_system": "plasma proteins", "settings": "cited from earlier work"}, "[3]": {"settings": "cited from earlier work"}, "[4]": {"settings": "cited from earlier work", "remark": "listed apart in the source"}, "[5]": {"test_system": "toad palate", "assay": "Nasal ciliotoxicity evaluation, in-situ toad palate model", "assay_type": "in vivo", "set-up": "key to Ciliotoxicity: no effect: cilia on the mucosa was intact, dense and beating actively; mild: less than 25% ciliostasis; moderate: cilia was disarranged or only partial cilia left; all cilia lost and apical cell border was severe deformed", "settings": "0.2 ml, 4 h, light microscope 400×", "protocol": "The nasal ciliotoxicity of zolpidem tartrate, solubilizing agents and several nasal solution formulations were investigated using an in-situ toad palate model. Briefly, 0.2 ml test formulations were administrated on a toad palate. […] The mucocilia was examined with a light microscope at enlargements of 400× (n=3˜6). Saline and a typical nasal mucociliary toxic agent—sodium deoxycholatee—were used as a negative and positive control, respectively. Study protocol was illustrated in Table 11, and the degree of ciliotoxicity caused by the test formulations was coarse classified as follows: “no effect”: cilia on the mucosa was intact, dense and beating actively; “mild”: less than 25% ciliostasis; “moderate”: cilia was disarranged or only partial cilia left; “severe”: all cilia lost and apical cell border was severe deformed."}, "[6]": {"settings": "intranasal administration (ZLP-B01), 1.25 mg/dog"}, "[7]": {"settings": "intranasal administration (ZLP-B01), 2.5 mg/dog"}, "[8]": {"settings": "intranasal administration (ZLP-B01), 5 mg/dog"}}, "note": "Structures can show the parent of a compound that is named as a salt.", "data": [{"compound": "Cc1ccc(-c2nc3ccc(C)cn3c2CC(=O)N(C)C)cc1", "note": "[Zolpidem, N,N,6-trimethyl-2-(4-methylphenyl)-imidazo[1,2-a]pyridine-3-acetamide]", "values": [{"measurement": "CL/F", "setting": "[1]; [6]", "value": "110 ± 41", "unit": "L/h"}, {"measurement": "Rel F(5 mg oral)", "setting": "[1]; [6]", "value": 167, "unit": "%"}, {"measurement": "CL/F", "setting": "[1]; [7]", "value": "144 ± 76", "unit": "L/h"}, {"measurement": "Rel F(5 mg oral)", "setting": "[1]; [7]", "value": 145, "unit": "%"}, {"measurement": "CL/F", "setting": "[1]; [8]", "value": "181 ± 137", "unit": "L/h"}, {"measurement": "Rel F(5 mg oral)", "setting": "[1]; [8]", "value": 124, "unit": "%"}, {"measurement": "CL/F", "setting": "[1]; oral administration (marketed tablet, Stilnox), 5 mg/dog", "value": "204 ± 96", "unit": "L/h"}, {"measurement": "CL/F", "setting": "[1]; oral administration (marketed tablet, Stilnox), 10 mg/dog", "value": "110 ± 69", "unit": "L/h"}, {"measurement": "AUC(0-inf)", "setting": "[1]; inhaled or intranasal, 1.25 mg", "value": "12.9 ± 5.2", "unit": "ng·h/mL"}, {"measurement": "AUC(0-t)", "setting": "[1]; inhaled or intranasal, 1.25 mg", "value": "12.8 ± 5.24", "unit": "ng·h/mL"}, {"measurement": "Cmax", "setting": "[1]; inhaled or intranasal, 1.25 mg", "value": "13 ± 6.36", "unit": "ng/mL"}, {"measurement": "MRT", "setting": "[1]; inhaled or intranasal, 1.25 mg", "value": "67.8 ± 10.8", "unit": "min"}, {"measurement": "half-life", "setting": "[1]; inhaled or intranasal, 1.25 mg", "value": "57 ± 10.8", "unit": "min"}, {"measurement": "Tmax", "setting": "[1]; inhaled or intranasal, 1.25 mg, intranasal administration (ZLP-B01), 1.25 mg/dog", "value": "8.4 ± 1.8", "unit": "min"}, {"measurement": "AUC(0-inf)", "setting": "[1]; inhaled or intranasal, 2.5 mg", "value": "22.4 ± 12.1", "unit": "ng·h/mL"}, {"measurement": "AUC(0-t)", "setting": "[1]; inhaled or intranasal, 2.5 mg", "value": "22.2 ± 12.2", "unit": "ng·h/mL"}, {"measurement": "Cmax", "setting": "[1]; inhaled or intranasal, 2.5 mg", "value": "22 ± 13.1", "unit": "ng/mL"}, {"measurement": "MRT", "setting": "[1]; inhaled or intranasal, 2.5 mg", "value": "74.4 ± 49.8", "unit": "min"}, {"measurement": "half-life", "setting": "[1]; inhaled or intranasal, 2.5 mg", "value": "43.8 ± 13.8", "unit": "min"}, {"measurement": "Tmax", "setting": "[1]; inhaled or intranasal, 2.5 mg, intranasal administration (ZLP-B01), 2.5 mg/dog", "value": "8.4 ± 4.2", "unit": "min"}, {"measurement": "AUC(0-inf)", "setting": "[1]; inhaled or intranasal, 5 mg", "value": "38 ± 18.5", "unit": "ng·h/mL"}, {"measurement": "AUC(0-t)", "setting": "[1]; inhaled or intranasal, 5 mg", "value": 38, "unit": "ng·h/mL"}, {"measurement": "Cmax", "setting": "[1]; inhaled or intranasal, 5 mg", "value": 33.3, "unit": "ng/mL"}, {"measurement": "MRT", "setting": "[1]; inhaled or intranasal, 5 mg", "value": "90 ± 19.8", "unit": "min"}, {"measurement": "half-life", "setting": "[1]; inhaled or intranasal, 5 mg", "value": "68.4 ± 11.4", "unit": "min"}, {"measurement": "Tmax", "setting": "[1]; inhaled or intranasal, 5 mg, intranasal administration (ZLP-B01), 5 mg/dog", "value": 12.6, "unit": "min"}, {"measurement": "Tmax", "setting": "[1]; inhaled or intranasal, 5 mg, range over dogs, intranasal administration, 5 mg/dog", "value": "3 to 15", "unit": "min"}, {"measurement": "AUC(0-inf)", "setting": "[1]; po, 5 mg", "value": "30.7 ± 16.9", "unit": "ng·h/mL"}, {"measurement": "AUC(0-t)", "setting": "[1]; po, 5 mg", "value": 30.6, "unit": "ng·h/mL"}, {"measurement": "Cmax", "setting": "[1]; po, 5 mg", "value": 25.5, "unit": "ng/mL"}, {"measurement": "MRT", "setting": "[1]; po, 5 mg", "value": "100 ± 27.6", "unit": "min"}, {"measurement": "half-life", "setting": "[1]; po, 5 mg", "value": "57.6 ± 10.2", "unit": "min"}, {"measurement": "Tmax", "setting": "[1]; po, 5 mg, oral administration (marketed tablet, Stilnox), 5 mg/dog", "value": 41.4, "unit": "min"}, {"measurement": "Tmax", "setting": "[1]; po, 5 mg, range over dogs, oral administration, 5 mg/dog", "value": "19.8 to 120", "unit": "min"}, {"measurement": "AUC(0-inf)", "setting": "[1]; po, 10 mg", "value": "121 ± 64.6", "unit": "ng·h/mL"}, {"measurement": "AUC(0-t)", "setting": "[1]; po, 10 mg", "value": "120 ± 64.4", "unit": "ng·h/mL"}, {"measurement": "Cmax", "setting": "[1]; po, 10 mg", "value": "128 ± 59.7", "unit": "ng/mL"}, {"measurement": "MRT", "setting": "[1]; po, 10 mg", "value": "79.8 ± 18", "unit": "min"}, {"measurement": "half-life", "setting": "[1]; po, 10 mg", "value": "59.4 ± 12.6", "unit": "min"}, {"measurement": "Tmax", "setting": "[1]; po, 10 mg, oral administration (marketed tablet, Stilnox), 10 mg/dog", "value": "25.8 ± 11.4", "unit": "min"}, {"measurement": "bound to plasma proteins", "setting": "[2]", "value": "about 92%"}, {"measurement": "time to peak plasma concentrations", "setting": "[3]; after oral doses", "value": "≤ 3", "unit": "h"}, {"measurement": "elimination half-life", "setting": "[3]; in vivo", "value": "about 2.5 hours"}, {"measurement": "absolute bioavailability", "setting": "[3]; oral, first-pass metabolism", "value": "about 70%"}]}, {"compound": "Cc1ccc(-c2nc3ccc(C)cn3c2CC(=O)N(C)C)cc1", "note": "[Zolpidem tartrate]", "values": [{"measurement": "aqueous solubility", "setting": "[4]; at 20° C.", "value": "about 23 mg/ml"}, {"measurement": "solubility in water", "setting": "[4]; water", "value": "slightly soluble"}]}, {"compound": "sodium deoxycholate [1% sodium deoxycholate]", "values": [{"measurement": "Ciliotoxicity", "setting": "[5]", "value": "severe"}, {"measurement": "Optical microscopic observation", "setting": "[5]", "value": "no cilia on the mucosa"}]}]}
